Test results taken from US20250194599A1, “PESTICIDE FORMULATIONS” (FMC CORPORATION, priority 2022, published 2025).

Tests used:
Assay type in all cases: in vivo
Cydia pomonella [1] = assay: Field trial Example 1: pupae counts in corrugated cardboard tree bands on 100 trees; settings: Trial 4 (highest infestation), programs of Table 1
Method: (§1) A field trial was conducted in Argentina to determine the effect of blending codling moth pheromone, (E,E)-8,10-dodecadien-1-ol, with chlorantraniliprole for control of coding moth population in apple orchards. The first flight of codling moth was targeted, at which time standard grower treatment pheromone dispensers had been placed in the respective fields. Applications of the chlorantraniliprole or chlorantraniliprole+pheromone were timed when eggs were expected to hatch.
(§2) Treatment programs comprising nine tracts of land across three farms were performed (see FIGS. 1A-C). SC=suspension concentrate; VP=vapor releasing product; WG=water-dispersible granules.
(§3) In brief, one treatment program was performed using an application of pheromone alone at 90 DD followed by applications of chlorantraniliprole plus pheromone at 250 DD and 250DD+21 days, respectively. A separate treatment was performed by applying chlorantraniliprole alone at 250 DD and 250DD+21 days. […]
(§4) Treatment effects were determined by conducting fruit damage counts prior to second generation flights by evaluating 1000 fruit in each plot for codling moth damage. […] The bands were removed during the second week of January, taken to the lab and counted.

Cydia pomonella [2] = assay: Field trial Example 1: fruit damage counts, 1000 fruit per plot, apple orchards; settings: Trial 4 (highest codling moth infestation), apple orchard, Argentina; programs of Table 1; letters = significantly different groups (Chi-square)
Method: as §1, §2, §3, §4

Cydia pomonella [3] = assay: Field trial Example 2: larva per hectare captured from corrugated cardboard traps in 100 trees; settings: treatments of Table 4, FIG. 6
Method: (§5) A field trial was conducted in Argentina to evaluate the efficacy of chlorantraniliprole in combination with a kairomone, ethyl (2E,4Z)-2,4-decadienoate, to improve Cydia pomonella control in foliar application of apple (Malus domestica) compared to the efficacy of chlorantraniliprole alone and kairomone alone. SC=suspension concentrate; CS=capsule suspension
(§6) Efficacy of the trial was evaluated by (1) comparing the number of damaged fruit across the treatment groups; and (2) comparing the larva captured per hectare that were captured from corrugated cardboard traps settled in 100 trees. As shown in FIGS. 4-5, there was a significant difference in damaged fruits treatments that included chlorantraniliprole+kairomone compared to fruits treated with only chlorantraniliprole.

Cydia pomonella [4] = assay: Field trial Example 2: number of damaged fruit across treatment groups, apple; settings: Example 2, foliar application, treatments of Table 4, FIGS. 4-5
Method: as §5, §6

Structure (SMILES)	# of Pupae Found (Cydia pomonella [1])	# Damaged Fruit/ 1000 fruit (Cydia pomonella [2]) [c]	larva per hectare captured in corrugated cardboard traps (Cydia pomonella [3])	damaged fruits out of 1000 fruits per treatment (Cydia pomonella [4])
CNC(=O)c1cc(Cl)cc(C)c1NC(=O)c1cc(Br)nn1-c1ncccc1Cl [Chlorantraniliprole Alone, 3-bromo-N-(4-chloro-2-methyl-6-(methylcarbamoyl)phenyl)-1-(3-chloropyridin-2-yl)-1H-pyrazole-5-carboxamide]	1782	39		
CCCCC/C=C\C=C\C(=O)OCC [Kairomone, ethyl (2E,4Z)-2,4-decadienoate]			larva per hectare significantly higher compared to all other treatments	number of damaged fruits significantly higher compared to all other treatments
